Laboratory results reported in patent US10662193B2, “Carbazole and carboline compounds for use in the diagnosis, treatment, alleviation or prevention of disorders associated with amyloid or amyloid-like proteins” (AC IMMUNE SA, priority 2014, dated 2020).

What was measured:
AD brain-enriched PHF = AD brain-enriched PHF (Homo sapiens, UniProt P10636); assay: Assay 2 (filter trap): [3H]RefA radio-binding competition assay and Ki on PHF; settings: [^3H]RefA 10 nM; for inhibition at 2.5 µM: compound 2.5 μM, no Ki determined; for Ki: PHF diluted 1/80, compound 0.12 nM to 50 μM
AD brain-enriched PHF, sequence (P10636 623-708 limits assumed): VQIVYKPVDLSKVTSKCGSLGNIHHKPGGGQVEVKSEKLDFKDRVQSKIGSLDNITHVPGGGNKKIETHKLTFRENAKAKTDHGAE
Method: Displacement of [^3H]RefA by Compounds of this Invention
50 g of frontal lobe tissue from post-mortem brain of an Alzheimer's disease (AD) patient were obtained from the London Tissue Bank. The patient was a […] and died […]. The brain sample was collected 5 hours post-mortem and characterized for Braak disease stage (Braak, H.; Braak, E. Acta Neuropathol., 1991, 82, 239-259) as stage VI. For the enrichment of PHF's, around 15 g of the AD human brain was thawed on ice and homogenized with 50 ml of homogenization buffer [0.75 M NaCl in RAB buffer (100 mM 2-(N-morpholino) ethanesulfonic acid (MES), 1 mM EGTA, 0.5 mM MgSO4, 2 mM DTT, pH 6.8) supplemented with protease inhibitors (Complete; Roche 11697498001) in a glass Dounce homogenizer. The homogenate was then incubated at 4° C. for 20 min to let any residual microtubules depolymerize, before the homogenate was transferred into polycarbonate centrifuge bottles (16×76 mm; Beckman 355603) and centrifuged at 11,000 g (12,700 RPM) in an ultracentrifuge (Beckman, XL100K) for 20 min at 4° C. using the pre-cooled 70.1 rotor (Beckman, 342184). Pellets were kept on ice. Supernatants were pooled into polycarbonate bottles and centrifuged again at 100,000 g (38,000 RPM) for 1 h at 4° C. in the 70.1 Ti rotor to isolate PHF-rich pellets, whereas soluble tau remained in the supernatants. The pellets from the first and second centrifugations were re-suspended in 120 mL of extraction buffer [10 mM Tris-HCl pH 7.4, 10% sucrose, 0.85 M NaCl, 1% protease inhibitor (Calbiochem 539131), 1 mM EGTA, 1% phosphatase inhibitor (Sigma P5726 and P0044)]. The solution was then transferred into polycarbonate centrifuge bottles (16×76 mm; Beckman 355603) and centrifuged at 15,000 g (14,800 RPM) in an ultracentrifuge (Beckman, XL100K) for 20 min at 4° C. using the 70.1 Ti rotor. In the presence of 10% sucrose and at low speed centrifugation, most PHF remained in the supernatant whereas intact or fragmented NFTs and larger PHF aggregates were pelleted. The pellets were discarded. 20% Sarkosyl (Sigma L7414-10ML) was added to the supernatants to a final concentration of 1% and stirred at room temperature for 1 h. This solution was then centrifuged into polycarbonate bottles at 100,000 g (38,000 RPM) for 1 h at 4° C. in the 70.1 Ti rotor, and the pellets containing PHF-rich material were re-suspended in a total final volume of 1.5 mL of PBS, aliquoted and stored at −80° C.
[^3H]RefA Radio-Binding Competition Assay
AD brain-enriched PHF diluted 1/80 were incubated in the presence of [^3H]RefA at 10 nM and the example compounds of this invention at 2.5 μM (250× excess), for 45 minutes at 37° C. Samples were then analyzed by on GF/B filter plates as described above (in the section “[^3H]RefA radio-binding assay and determination of the dissociation constant (Kd)). Non-specific signal was determined again with an excess of un-labeled RefA and specific binding calculated by subtracting the non-specific signal from the total signal. Competition was calculated as percent, where 0% was defined as the specific binding in the presence of vehicle (2.8% DMSO in PBS) and 100% as the values obtained in the presence of excess cold RefA. Similar assays were performed to determine the competition of the cold compounds on [^3H]RefA on in vitro aggregated recombinant human tau or Abeta1-42 For both recombinant proteins, 20 μg/mL of aggregates were incubated with 10 nM of [^3H]RefA for recombinant human tau or 80 nM of [^3H]RefA for recombinant human Abeta1-42.
Determination of the Binding Affinity (Ki)
Samples were then analyzed on GF/B filter plates as described above and Ki values calculated using Prism V5 (GraphPad).

[1] = system: tau tangles/Aβ plaques on AD brain sections; assay: Assay 1: direct staining of human Alzheimer's disease brain sections (fluorescence); format: binding; set-up: key to Direct staining of tau tangles/Aβ plaques on AD brain sections at 100 μM / Direct staining of tau tangles on AD brain sections at 100 μM / Direct staining of Aβ plaques on AD brain sections at 100 μM / Direct staining of tau tangles on AD brain sections (footnote a: at 250 μM): − (No); +++ (strong); ++ (good); + (weak)
Method: Assay 1 (Fluorescence Based Assay):
(§1) Direct Binding of Compounds of this Invention to Human Alzheimer's Disease Brain Sections and/or Displacement of RefA and Compound B
(§2) Frozen sections with a thickness of […] from the amygdala of donors diagnosed with Braak stage V-VI Alzheimer's Disease (Braak, H.; Braak, E. Acta Neuropathol., 1991, 82, 239-259), were purchased from a commercial provider (Tissue Solutions) and kept at −80° C. until use.
Direct Staining of Human Alzheimer's Disease Brain Sections
Brain sections were encircled with pap pen liquid blocker to reduce the volume of solution for the different incubations. Sections were fixed for 15 min at 4° C. with 4% paraformaldehyde and washed three times 5 minutes with PBS at room temperature. […] To reduce the auto-fluorescence of the tissue, the sections were incubated in a solution of 0.1% Sudan Black (Sigma 199664) in 70% ethanol for 15 min at room temperature in the dark, washed four times for 5 minutes with PBS, and mounted using ProLong Gold Antifade reagent (Invitrogen P36930). Sections were then analyzed on the Nikon Eclipse Ti microscope to detect staining and imaged using Nikon DS-Fi2 camera and NIS-Element AR4.13.1 software.

[2] = system: tau tangles on AD brain section; assay: Assay 1: displacement of RefA on human AD brain sections (fluorescence); format: binding; settings: 1 μM RefA vs. 250 μM compound
Method: as §1, §2
Displacement of RefA and Compound B
Brain sections were mainly treated as described above. Test compounds were, however, incubated on the section at 250 μM in 50% ethanol for 20 min at room temperature, and then directly incubated with the fluorescent reference compounds RefA and Compound B, each at 1 μM in 50% ethanol for 20 min at room temperature. RefA and Compound B stainings were visualized using the 470 nm and 365 nm excitation filters, respectively. Images were acquired, and tangles and plaques quantified using the NIS-Element software. Only those compounds not directly staining tangles or plaques at the same wavelengths as RefA and Compound B were tested in the displacement assay.
Structure of RefA (Tago et al., J. Label. Compd. Radiopharm. 2013, DOI: 10.1002/jlcr.3133)

[3] = 100 μM compound, human AD brain sections, fluorescence, cell does not say tangles or plaques
[4] = 100 μM in 50% ethanol, 20 min, "(tangles)" beside the symbol = tangles stained

With Cn1c2c(c3ccc(Nc4ccc(F)c(F)c4)nc31)C(=O)N(CCCN)CC2 [212 Step F] the inhibition at 2.5 µM (AD brain-enriched PHF) was < 50%.
With Cn1c2ccncc2c2ccc(Nc3ccc(F)c(C#N)c3)nc21 [Example 6] the inhibition at 2.5 µM (AD brain-enriched PHF) was < 50% and the “Direct staining of tau tangles on AD brain sections at 100 μM” value ([1]; 100 μM compound) was “+++ (tangles)”.
For Cn1c2ccncc2c2ccc(Nc3cc(N4CCOCC4)ccc3F)nc21 [Example 10], the inhibition at 2.5 µM (AD brain-enriched PHF) was < 50% and the “Direct staining of tau tangles/Aβ plaques on AD brain sections at 100 μM” value [1, 3] was “−”.
Cn1c2ccncc2c2ccc(Nc3ccc(OC(F)F)nc3)nc21 [Example 11] was tested, and the Ki (AD brain-enriched PHF) was 188 nM and the “Direct staining of tau tangles on AD brain sections at 100 μM” value ([1]; 100 μM compound) was “++ (tangles)”.
For Cn1c2ccncc2c2ccc(Nc3cccc(OC(F)(F)F)c3)nc21 [Example 13], the Ki (AD brain-enriched PHF) was 169 nM.
Work on Cn1c2ccncc2c2ccc(Nc3cccc(F)c3N3CCOCC3)nc21 [Example 14] yielded a Ki (AD brain-enriched PHF) of 371 nM.
In the case of Cn1c2ccncc2c2ccc(Nc3c(F)cccc3N3CCOCC3)nc21 [Example 15], the inhibition at 2.5 µM (AD brain-enriched PHF) is reported as < 50%.
In the case of Cn1c2ccncc2c2ccc(Nc3cc(F)ccc3N3CCOCC3)nc21 [Example 16], the inhibition at 2.5 µM (AD brain-enriched PHF) is reported as < 50% and the “Direct staining of tau tangles/Aβ plaques on AD brain sections at 100 μM” value [1, 3] is reported as “−”.
Cn1c2ccncc2c2ccc(Nc3ccc(C#N)c(F)c3)nc21 [Example 17] was tested, and the inhibition at 2.5 µM (AD brain-enriched PHF) was < 50% and the “Direct staining of tau tangles on AD brain sections at 100 μM” value ([1]; 100 μM compound) was “+++ (tangles)”.
With Cn1c2ccncc2c2ccc(Nc3cnn(CCF)c3)nc21 [Example 40] the “Competition on AD brain section tau tangles (1 μM RefA vs. 250 μM compound)” value (shortened to “Competition … (1 μM RefA vs. 250 μM compound)”) [2] was 91% and the “Direct staining of tau tangles on AD brain sections at 100 μM” value ([1]; 100 μM compound) was “+++ (tangles)”.
For Cn1c2ccncc2c2ccc(Nc3cnn(CCCCF)c3)nc21 [Example 45], the “Competition … (1 μM RefA vs. 250 μM compound)” value [2] was 39% and the “Direct staining of tau tangles/Aβ plaques on AD brain sections at 100 μM” value [1, 3] was “−”.
For Cn1c2ccncc2c2ccc(Nc3ccnn3CCF)nc21 [Example 46], the “Competition … (1 μM RefA vs. 250 μM compound)” value [2] was 55% and the “Direct staining of tau tangles/Aβ plaques on AD brain sections at 100 μM” value [1, 3] was “−”.
In the case of Cn1c2ccncc2c2ccc(Nc3ccn(CCF)n3)nc21 [Example 47], the “Competition … (1 μM RefA vs. 250 μM compound)” value [2] is reported as 89% and the “Direct staining of tau tangles on AD brain sections at 100 μM” value ([1]; 100 μM compound) is reported as “++ (tangles)”.
With Cn1c2ccncc2c2ccc(Nc3cccc(NCCF)n3)nc21 [Example 78] the “Competition … (1 μM RefA vs. 250 μM compound)” value [2] was 91% and the “Direct staining of tau tangles on AD brain sections at 100 μM” value ([1]; 100 μM compound) was “++ (tangles)”.
For CN1CCc2c(c3ccc(Nc4ccc5c(c4)OCO5)nc3n2C)C1=O [Example 170], the “Competition … (1 μM RefA vs. 250 μM compound)” value [2] was 20%, the inhibition at 2.5 µM (AD brain-enriched PHF) was < 50% and the “Direct staining of tau tangles/Aβ plaques on AD brain sections at 100 μM” value [1, 3] was “−”.
With COc1cc(Nc2ccc3c4c(n(C)c3n2)CCN(C)C4=O)ccc1C [Example 171] the inhibition at 2.5 µM (AD brain-enriched PHF) was < 50% and the “Direct staining of tau tangles/Aβ plaques on AD brain sections at 100 μM” value [1, 3] was “−”.
CN1CCc2c(c3ccc(Nc4ccc5ncn(C)c5c4)nc3n2C)C1=O [Example 172] was tested, and the “Competition … (1 μM RefA vs. 250 μM compound)” value [2] was 16%, the inhibition at 2.5 µM (AD brain-enriched PHF) was < 50% and the “Direct staining of tau tangles/Aβ plaques on AD brain sections at 100 μM” value [1, 3] was “−”.
With Cn1c2c(c3ccc(Nc4ccc(F)c(F)c4)nc31)C(=O)NCC2 [Example 174] the inhibition at 2.5 µM (AD brain-enriched PHF) was < 50% and the “Direct staining of tau tangles/Aβ plaques on AD brain sections at 100 μM” value [1, 3] was “−”.
For Cn1c2c(c3ccc(Nc4cc(OCCF)ccn4)nc31)C(=O)NCC2 [Example 208], the “Direct staining of tau tangles/Aβ plaques on AD brain sections at 100 μM” value [1, 3] was “−”.
With CN1CCc2c(c3ccc(Nc4cccc(OCCF)n4)nc3n2C)C1=O [Example 209] the “Direct staining of tau tangles/Aβ plaques on AD brain sections at 100 μM” value [1, 3] was “−”.
With Cn1c2c(c3ccc(Nc4cccc(OCCF)n4)nc31)C(=O)NCC2 [Example 210] the “Direct staining of tau tangles/Aβ plaques on AD brain sections at 100 μM” value [1, 3] was “−”.
CN1CCc2c(c3ccc(Nc4ccc(F)c([N+](=O)[O-])c4)nc3n2C)C1=O [Example 211] was tested, and the “Direct staining of tau tangles/Aβ plaques on AD brain sections at 100 μM” value [1, 3] was “−”.
For CN1CCc2c(c3ccc(Nc4ccc(F)c([N+](C)(C)C)c4)nc3n2C)C1=O [Example 212], the “Direct staining of tau tangles/Aβ plaques on AD brain sections at 100 μM” value [1, 3] was “−”.
Cn1c2c(c3ccc(Nc4ccc(F)c(F)c4)nc31)C(=O)N(CCO)CC2 [Example 215] was tested, and the “Direct staining of tau tangles/Aβ plaques on AD brain sections at 100 μM” value [1, 4] was “−”.
With CN(C)C(=O)CCc1ccc(/C=C2/C=CC(c3cccs3)N2)n1B(F)F (stereo not drawn) [Prep. Example 17, reference compound] the “Direct staining of tau tangles/Aβ plaques on AD brain sections at 100 μM” value [1, 4] was “−”.
COc1ccc(C2C(CCC(=O)NCCCCCC(=O)N(C)C)=C/C(=C/c3[nH]c(C)cc3C)N2B(F)F)cc1 (stereo not drawn) [Prep. Example 18, reference compound] was tested, and the “Direct staining of tau tangles/Aβ plaques on AD brain sections at 100 μM” value [1, 4] was “−”.
